# Experimental data reported in paper PMC10111022, “Comparison of pharmacological inhibitors of lysine-specific demethylase 1 in glioblastoma stem cells reveals inhibitor-specific efficacy profiles” (Frontiers in Neurology, 2023).
# Columns and labels:
# NK or T-cells = experiment: Flow cytometry of peripheral blood NK and T-cell subsets at day 50; type: in vivo, athymic nude mice; settings: peripheral blood mononuclear cells
# Description: Once confirmation of intracranial tumor engraftment at 7 days post-engraftment, the mice were equally randomized into groups to receive either GSK-LSD1 or the vehicle control. The mice received GSK-LSD1 1 mg/kg diluted in DMSO and PBS (5 and 95%, respectively) via intraperitoneal injection (200 μL/mouse) while the control mice received the untreated vehicle in parallel. In accordance with the approved IACUC protocol (No: 638-RN03) at MD Anderson Cancer Center, treatment continued until the mice succumbed to tumor burden and were found in a moribund condition as determined by neurological impairment (hydrocephalus, seizures, inactivity, and/or ataxia) or morbidity (hunched posture or weight loss). At this time mice were euthanized by both carbon dioxide exposure and cervical dislocation. Flow cytometric characterization of immune cell subsets was carried out in blood samples obtained from mice (four control mice and six GSK-LSD1 mice) in each group at day 50 via cardiac puncture and the sample was processed using Ficoll (GE Healthcare; Chicago, IL) centrifugation to collect the peripheral blood mononuclear cells (PBMCs). Next, PBMCs were stained with the Ghost Dye Violet (Tonbo; San Diego, CA) and then incubated with antibodies at 4°C for 25 min before analysis. […]
# human T cells = tested on: human T cells; parameters: method as in PMID 32166329; settings: direct effect on human T cells; cited from earlier work
# MDA-GSC 262 = experiment: Cell viability dose response (IC50), MDA-GSC 262; type: cell-based; settings: Homo sapiens, mean of three independent experiments
# Description: (§1) MDA-GSCs were plated at 50,000 cells/well into 12-well plates at and allowed to grow for 5 days until neurospheres were formed. The cells were then treated with either TCP, GSK-LSD1, or RN-1 at various concentrations for 5 days. Next, the cells were collected and neurospheres were dissociated with Accutase (BioLegend; San Diego, CA). Cell viability was determined using a trypan dye exclusion assay and read with the Vi-Cell XR Cell Viability Analyzer (Beckman Coulter; Brea, CA). NHAs were plated at 50,000 cells/well into 12-well plates and allowed to adhere overnight. The following day, NHAs were treated with the LSD1 inhibitors. After 5 days, the cells were detached using TrypLE and assessed with the trypan blue dye exclusion assay.
# (§2) The alamarBlue cell viability (Bio-Rad; Hercules, CA) was performed on the MDA-GSCs according to the manufacturer’s protocol. The cells were plated at 5,000 cell/well into a 96-well plate and allowed to grow for 5 days. After 5 days, the alamarBlue reagent was added and fluorescence was measured with the Synergy 2 (BioTek Instruments; Winooski, VT) plate reader according to the manufacturer’s protocol.
# MDA-GSC17 = experiment: qPCR of resistance-related genes, MDA-GSC17; type: cell-based, Human; settings: MDA-GSC17 (sensitive)
# Description: Total RNA was extracted using RNeasy Plus Mini Kit (Qiagen; Hilden, Germany) following the manufacturer’s protocol. cDNA was synthesized with the iScript cDNA synthesis kit (Bio-Rad; Hercules, CA), qPCR was performed using Forget-Me-Not EvaGreen qPCR kit (Biotium; Fremont, CA), and samples were analyzed with the LightCycler96 (Roche; Basel, Switzerland). Cq values were normalized to PPIA and reported as relative fold change from untreated control.
# MDA-GSC 311 = experiment: Cell viability dose response (IC50), MDA-GSC 311; type: cell-based; settings: Homo sapiens, mean of three independent experiments
# Description: as §1, §2
# [1] = tested on: MDA-GSC311, MDA-GSC20, MDA-GSC23, MDA-GSC8-11; experiment: Colony (neurosphere) formation assay; type: cell-based, Human; settings: three of the four cell lines; 200-400 μM, 3 weeks
# Description: Colony formation assay was performed on MDA-GSC 311, MDA-GSC 20, MDA-GSC 23, and MDA-GSC 8–11. Cells were plated in triplicate into clear, flat-bottom 96-well plates at 3 cells/well into 100 μL of media. MDA-GSCs were treated with 100 μL of GSK-LSD1 and allowed to grow for 3 weeks at 37°C before scoring. The final concentration of GSK-LSD1 in each well was determined using the IC50 in each cell line (MDA-GSC 311 at 200 μM, MDA-GSC 20 at 300 μM, MDA-GSC 23 at 200 μM, MDA-GSC 8–11 at 400 μM). Clonogenicity was scored using the Cell3iMager (Screen Life Science; Elk Grove Village, IL) to count the number of wells with colony formation as positive and wells without colony formation as negative.
# MDA-GSC 23 = experiment: Cell viability dose response (IC50), MDA-GSC 23; type: cell-based; settings: Homo sapiens, mean of three independent experiments
# Description: as §1, §2
# NHA = experiment: Cell viability dose response (IC50), normal human astrocytes; type: cell-based
# Description: as §1, §2
# [2] = Complete blood count at day 50 in xenograft mice; type: in vivo, athymic nude mice
# Description: Once confirmation of intracranial tumor engraftment at 7 days post-engraftment, the mice were equally randomized into groups to receive either GSK-LSD1 or the vehicle control. The mice received GSK-LSD1 1 mg/kg diluted in DMSO and PBS (5 and 95%, respectively) via intraperitoneal injection (200 μL/mouse) while the control mice received the untreated vehicle in parallel. In accordance with the approved IACUC protocol (No: 638-RN03) at MD Anderson Cancer Center, treatment continued until the mice succumbed to tumor burden and were found in a moribund condition as determined by neurological impairment (hydrocephalus, seizures, inactivity, and/or ataxia) or morbidity (hunched posture or weight loss). At this time mice were euthanized by both carbon dioxide exposure and cervical dislocation. Flow cytometric characterization of immune cell subsets was carried out in blood samples obtained from mice (four control mice and six GSK-LSD1 mice) in each group at day 50 via cardiac puncture and the sample was processed using Ficoll (GE Healthcare; Chicago, IL) centrifugation to collect the peripheral blood mononuclear cells (PBMCs). Next, PBMCs were stained with the Ghost Dye Violet (Tonbo; San Diego, CA) and then incubated with antibodies at 4°C for 25 min before analysis. The antibodies anti-NKG2D APC (Biolegend #320807), CD16-PE-Cy7 (ThermoFisher #25–0168-42), CD56-PE (BD Biosciences #345812), anti-CD3-FITC (Biolegend; #100305), CD4-PerCP (ThermoFisher #MHCD0431), anti-CD8-ACP-Cy7 (Biolegend #344713), and anti-SLAMF7-PE (eBioscience #12–2,229-42) were used in concentrations recommended per manufacturer’s instruction. Samples were washed and resuspended in FACS buffer for analysis on a Fortessa flow cytometer (BD Biosciences; Haryana, India).
# Given the effect on tumor regression required almost 2 months of treatment, we sought to determine if any hematological toxicities were present from the prolonged exposure to LSD1 inhibition. At day 50, a subset of mice from each group were sacrificed and blood was collected for evaluation with a Complete Blood Count (CBC) to compare different populations of blood cells. […] However, the platelet count in the GSK-LSD1 receiving mice is higher compared to the control and may be secondary to the underlying tumor burden (Figure 5F). The WBC differential further confirmed the absence of hematological toxicity with no difference between the GSK-LSD1 and the control group in any of the individual cell types (Figure 5G). […] In parallel, the peripheral blood mononuclear cells (PBMCs) were also isolated and probed to assess the effect of GSK-LSD1. Prior studies of LSD1 inhibition via pharmacological inhibitors prompted the assessment of GSK-LSD1 effect on different subpopulations of natural killer (NK) cells and T-cells ([26], [30]).
# MDA-GSC 7–11 = experiment: Cell viability dose response (IC50), MDA-GSC 7–11; type: cell-based; settings: Homo sapiens, mean of three independent experiments
# Description: as §1, §2
# MDA-GSC 8–11 = experiment: Cell viability dose response (IC50), MDA-GSC 8–11; type: cell-based; settings: Homo sapiens, mean of three independent experiments
# Description: as §1, §2
# MDA-GSC 17 = experiment: Cell viability dose response (IC50), MDA-GSC 17; type: cell-based; settings: Homo sapiens, mean of three independent experiments
# Description: as §1, §2
compound,measurement,setting,value
c1ccc([C@@H]2C[C@H]2NC2CCNCC2)cc1 [GSK-LSD1],cytotoxic effects on NK or T-cells,NK or T-cells,does not have cytotoxic effects
same,human T cell growth,human T cells,minimally impacted
same,IC50,MDA-GSC 262,> 750 µM
same,expression of resistance-related genes,MDA-GSC17,not
same,IC50,MDA-GSC 311,> 750 µM
same,capacity to form neurospheres from single cells,[1],reduced capacity to form neurospheres
same,IC50,MDA-GSC 23,> 750 µM
same,IC50,"NHA; Homo sapiens, Astrocyte, NHA, mean of three independent experiments",> 750 µM
same,effect on NHA viability,NHA; NHA treated at the maximum concentration tested for each compound,minimal effect
same,leukopenia or erythropenia (CBC),"[2]; day 50, 1 mg/kg intraperitoneal, vs untreated mice",no evidence of leukopenia or erythropenia
same,platelet count,"[2]; day 50, compared to the control",higher
same,"WBC differential, individual cell types","[2]; day 50, vs control group",no difference
same,RBC indices,"[2]; day 50, except for red cell distribution width (RDW)",largely demonstrate no effect
same,IC50,MDA-GSC 7–11,606 µM
same,IC50,MDA-GSC 8–11,726 µM
same,IC50,MDA-GSC 17,253 µM
